pIC50: −log10 of the molar value.

The target of this assay is c-kit (Homo sapiens (Human), UniProt P10721). Description: Mo7e cell proliferation assay (SCF dependent proliferation). In kind it is cell-based. The following applies: Mo7e cells stimulated with human recombinant SCF, 48 hours, 1% FBS. Summed up: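 SCF-dependent proliferation of human Mo7e cells, which express c-kit endogenously. After 48 h at 37° C, viability read by CellTiter Glo luminescence. IC50 taken as concentration giving response halfway between baseline and maximum.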
Chain of c-kit (P10721 26-976): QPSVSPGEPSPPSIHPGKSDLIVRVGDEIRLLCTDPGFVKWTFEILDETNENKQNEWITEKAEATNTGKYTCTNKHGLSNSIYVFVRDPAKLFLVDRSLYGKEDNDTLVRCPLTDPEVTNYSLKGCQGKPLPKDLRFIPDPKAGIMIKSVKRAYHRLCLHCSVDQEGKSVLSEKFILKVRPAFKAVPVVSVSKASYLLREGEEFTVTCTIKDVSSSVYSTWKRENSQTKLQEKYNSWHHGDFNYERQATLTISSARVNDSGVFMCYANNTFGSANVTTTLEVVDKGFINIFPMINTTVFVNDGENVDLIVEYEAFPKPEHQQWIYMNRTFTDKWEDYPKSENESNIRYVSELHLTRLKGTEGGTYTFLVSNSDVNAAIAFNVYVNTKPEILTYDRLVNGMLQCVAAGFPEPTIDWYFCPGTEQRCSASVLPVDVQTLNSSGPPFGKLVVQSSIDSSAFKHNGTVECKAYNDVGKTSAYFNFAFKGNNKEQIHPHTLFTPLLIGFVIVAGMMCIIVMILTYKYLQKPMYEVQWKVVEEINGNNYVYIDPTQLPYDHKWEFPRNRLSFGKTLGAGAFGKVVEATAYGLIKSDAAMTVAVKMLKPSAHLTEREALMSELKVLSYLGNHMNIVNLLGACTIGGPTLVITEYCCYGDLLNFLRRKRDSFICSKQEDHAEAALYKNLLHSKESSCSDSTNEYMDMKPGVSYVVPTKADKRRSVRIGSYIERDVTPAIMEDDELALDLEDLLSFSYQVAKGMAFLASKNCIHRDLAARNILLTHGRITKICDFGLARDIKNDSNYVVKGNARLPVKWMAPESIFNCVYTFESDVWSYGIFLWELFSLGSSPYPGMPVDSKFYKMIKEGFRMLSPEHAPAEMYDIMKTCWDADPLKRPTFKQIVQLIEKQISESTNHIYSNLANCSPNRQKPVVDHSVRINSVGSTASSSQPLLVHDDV
Take `Cc1ccc(-c2noc(C3(O)CCC3)n2)cc1NC(=O)c1cnc2ccccn12` [F167]: the pIC50 is 6.84.
As for `Cc1ccc(-c2noc(C3(C(N)=O)CC3)n2)cc1NC(=O)c1cnc2ccc(F)cn12` [F168], the figure is 6.29; as for `Cc1ccc(-c2noc(C3CC(F)(F)C3)n2)cc1NC(=O)c1cnc2cc(C3CCNCC3)ccn12` [F169], 6.27; as for `Cc1ccc(-c2noc(C3CC(F)(F)C3)n2)cc1NC(=O)c1cnc2ccc(CCC(=O)O)cn12` [F171], less than 5.00.
Next, `Cc1ccc(-c2noc([C@H]3C[C@@H](OCC(C)(C)O)C3)n2)cc1NC(=O)c1cnc2ccc(F)cn12` [F172]: less than 5.00; `Cc1ccc(-c2noc(C3CC(F)(F)C3)n2)cc1NC(=O)c1cnc2ccc(-c3nnn[nH]3)cn12` [F173]: less than 5.00.
Next, `COC(=O)NC1(c2nc(-c3ccc(C)c(NC(=O)c4cnc5ccccn45)c3)no2)CC(F)(F)C1` [F175, methyl (3,3-difluoro-1-(3-(3-(imidazo[1,2-a]pyridine-3-carboxamido)-4-methylphenyl)-1,2,4-oxadiazol-5-yl)cyclobutyl)carbamate]: 7.14; `Cc1ccc(-c2noc(C3CC(F)(F)C3)n2)cc1NC(=O)c1cnc2ccc(COCCF)cn12` [F176, N-(5-(5-(3,3-difluorocyclobutyl)-1,2,4-oxadiazol-3-yl)-2-methylphenyl)-6-((2-fluoroethoxy)methyl)imidazo[1,2-a]pyridine-3-carboxamide]: 7.17.

A word on the pIC50: it is the IC50 on a negative log10 scale, so that one unit is a factor of ten.

For the origin of these results see patent publication US9199981B2 (NOVARTIS AG, priority 2011, dated 2015).
